In article PMC6100189, “In Silico Docking and In Vitro Approaches towards BACE1 and Cholinesterases Inhibitory Effect of Citrus Flavanones” (Molecules : A Journal of Synthetic Chemistry and Natural …, 2018):

Tests used:
[1] = tested on: AChE; conditions: previous study ref 19; read-out: IC50 against AChE; cited from earlier work
[2] = molecular target: T1, BACE1 (Homo sapiens, UniProt P56817); experiment: BACE1 inhibition assay (Invitrogen kit, Rh-[…]-Quencher substrate); format: biochemical
T1 construct: purchased Invitrogen (Pan Vera, Madison, WI, USA)
Experimental: (§3) The BACE1 kit from Invitrogen (Pan Vera, Madison, WI, USA) was used for the measurement of BACE1 activity. α-Secretase (tumor necrosis factor-α converting enzyme, TACE) and its fluorogenic substrate were purchased from R&D Systems (Minneapolis, MN, USA). Elastase, chymotrypsin, trypsin, and their substrates were obtained from Sigma-Aldrich.
(§4) BACE1, TACE, chymotrypsin, trypsin, and elastase assays were carried out according to previously described methods [33]. BACE1, TACE, trypsin, chymotrypsin, and elastase assays were carried out using Rh-[sequence]-Quencher, Mca-PLAQAV-Dpa-RSSSR-NH2, N-benzoyl-l-Arg-pNA, N-benzoyl-L-Tyr-pNA, and N-succinyl-Ala-Ala-Ala-pNA as substrates, respectively.

[3] = molecular target: T2, Chymotrypsin (Bos taurus, UniProt P00766); experiment: Chymotrypsin inhibition assay; format: biochemical; conditions: mean ± S.E., read-out: Inhibitory activities (%) Chymotrypsin; for inhibition at 10 µM: sample 10 μM; for inhibition at 100 µM: sample 100 μM
T2 construct: purchased Sigma-Aldrich
Experimental: as §3, §4

[4] = molecular target: T3, AChE (Electrophorus electricus, UniProt O42275); experiment: Inhibition kinetics on AChE (Dixon and Lineweaver–Burk plots); format: biochemical; conditions: for Inhibition mode on AChE: Dixon and Lineweaver–Burk plots; for Ki: Dixon plot
T3 construct: purchased Sigma-Aldrich (St. Louis, MO, USA)
Experimental: (§1) AChE and BChE inhibitory activities were assessed by a modified version of the Ellman colorimetric method. Each reaction mixture consisted of sodium phosphate buffer (pH 7.4), test sample solution, and either AChE (electrophorus electricus, 0.8 U/mL) or BChE (equine serum, 0.8 U/mL) solution, which was then mixed and incubated for 15 min at room temperature. Reactions were initiated upon addition of DTNB and substrate (0.75 mM).
(§2) The inhibitory constant (Ki) was obtained by interpretation of the Dixon plot, and Vmax and Km were defined by Lineweaver–Burk plots, using the initial velocities obtained over a substrate concentration range. These kinetic parameters were calculated using the Enzyme Kinetic™ module of SigmaPlot™ version 12.3 (Systat Software, Inc., San Jose, CA, USA).

[5] = molecular target: T4, Elastase (Sus scrofa, UniProt P00772); experiment: Elastase inhibition assay; format: biochemical; conditions: mean ± S.E., read-out: Inhibitory activities (%) Elastase; for inhibition at 10 µM: sample 10 μM; for inhibition at 100 µM: sample 100 μM
T4 construct: purchased Sigma-Aldrich
Experimental: as §3, §4

[6] = molecular target: T3, AChE; experiment: AChE inhibition, modified Ellman colorimetric method; format: biochemical; conditions: mean ± S.E. of triplicate experiments
Experimental: (§5) AChE and BChE inhibitory activities were assessed by a modified version of the Ellman colorimetric method [34]. Each reaction mixture consisted of sodium phosphate buffer (pH 7.4), test sample solution, and either AChE (electrophorus electricus, 0.8 U/mL) or BChE (equine serum, 0.8 U/mL) solution, which was then mixed and incubated for 15 min at room temperature. Reactions were initiated upon addition of DTNB and substrate (0.75 mM).
All reactions were performed in 96-well plates in triplicate, and recorded using a microplate spectrophotometer (Molecular Devices, Sunnyvale, CA, USA).

[7] = molecular target: T1, BACE1; experiment: Inhibition kinetics on BACE1 (Dixon and Lineweaver–Burk plots); format: biochemical; conditions: for Inhibition mode on BACE1: Dixon and Lineweaver–Burk plots; for Ki: Dixon plot
Experimental: as §2

[8] = molecular target: T5, α-secretase (tumor necrosis factor-α converting enzyme, TACE) (Homo sapiens, UniProt P78536); experiment: TACE (α-secretase) inhibition assay; format: biochemical; conditions: mean ± S.E., read-out: Inhibitory activities (%) TACE; for inhibition at 10 µM: sample 10 μM; for inhibition at 100 µM: sample 100 μM
T5 construct: purchased R&D Systems (Minneapolis, MN, USA)
Experimental: as §3, §4

[9] = molecular target: T6, BChE (Equus caballus, UniProt P81908); experiment: BChE inhibition, modified Ellman colorimetric method; format: biochemical, equine; conditions: mean ± S.E. of triplicate experiments
T6 construct: BChE (equine serum, 0.8 U/mL); purchased Sigma-Aldrich (St. Louis, MO, USA); host or cells: equine serum
Experimental: as §5
Enzymatic hydrolysis, mediated by AChE or BChE, was monitored according to the formation of yellow 5-thio-2-nitrobenzoate anions at 405 nm for 15 min, which were produced by the reaction of DTNB with thiocholine released from ACh or BCh. All reactions were performed in 96-well plates in triplicate, and recorded using a microplate spectrophotometer (Molecular Devices, Sunnyvale, CA, USA).

[10] = tested on: mice; conditions: orally 4.5 mg/kg body weight of mice ref 23; cited from earlier work
[11] = tested on: Trypsin; experiment: Trypsin inhibition assay; format: biochemical; conditions: mean ± S.E.
Experimental: as §3, §4

[12] = tested on: ECV304/C6 co-culture model; conditions: in vitro ECV304/C6 co-culture model ref 27; cited from earlier work
[13] = tested on: rat brain; conditions: cited from earlier work
[14] = tested on: brains of rats; conditions: pre-administration 40 mg/kg, oral; no reference given; cited from earlier work
[15] = tested on: cholinesterases; conditions: several studies ref 20, 21; cited from earlier work
[16] = tested on: APPswe/PS1dE9 Tg mice; conditions: chronic administration for 16 weeks ref 18; cited from earlier work
[17] = tested on: APP/PS1 Tg mice; conditions: oral 100 mg/kg for 10 days ref 16; cited from earlier work
[18] = molecular target: T6, BChE; experiment: Inhibition kinetics on BChE (Dixon and Lineweaver–Burk plots); format: biochemical, equine
Experimental: as §1, §2

T6 sequence (P81908 whole entry): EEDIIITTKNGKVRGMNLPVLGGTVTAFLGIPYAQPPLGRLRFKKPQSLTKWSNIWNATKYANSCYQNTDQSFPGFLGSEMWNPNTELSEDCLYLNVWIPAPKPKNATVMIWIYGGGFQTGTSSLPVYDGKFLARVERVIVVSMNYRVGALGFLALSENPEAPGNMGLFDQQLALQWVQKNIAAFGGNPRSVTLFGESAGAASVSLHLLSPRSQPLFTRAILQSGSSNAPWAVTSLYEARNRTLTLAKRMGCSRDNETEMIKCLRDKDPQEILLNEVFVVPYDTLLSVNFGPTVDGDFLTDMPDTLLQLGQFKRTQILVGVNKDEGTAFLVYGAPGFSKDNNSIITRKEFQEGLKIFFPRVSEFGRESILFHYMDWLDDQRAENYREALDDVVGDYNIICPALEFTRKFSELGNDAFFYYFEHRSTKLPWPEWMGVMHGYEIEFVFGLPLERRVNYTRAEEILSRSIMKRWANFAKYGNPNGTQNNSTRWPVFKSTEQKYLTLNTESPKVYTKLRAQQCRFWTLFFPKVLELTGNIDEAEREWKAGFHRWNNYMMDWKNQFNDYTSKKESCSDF
T4 sequence (P00772 27-266): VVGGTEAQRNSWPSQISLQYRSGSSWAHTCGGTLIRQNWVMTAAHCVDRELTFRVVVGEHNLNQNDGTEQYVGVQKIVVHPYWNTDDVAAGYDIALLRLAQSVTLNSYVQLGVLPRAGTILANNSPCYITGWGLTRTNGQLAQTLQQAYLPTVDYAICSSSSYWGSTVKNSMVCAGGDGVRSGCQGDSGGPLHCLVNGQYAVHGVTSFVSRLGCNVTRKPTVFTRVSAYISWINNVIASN
T3 sequence (O42275 24-633): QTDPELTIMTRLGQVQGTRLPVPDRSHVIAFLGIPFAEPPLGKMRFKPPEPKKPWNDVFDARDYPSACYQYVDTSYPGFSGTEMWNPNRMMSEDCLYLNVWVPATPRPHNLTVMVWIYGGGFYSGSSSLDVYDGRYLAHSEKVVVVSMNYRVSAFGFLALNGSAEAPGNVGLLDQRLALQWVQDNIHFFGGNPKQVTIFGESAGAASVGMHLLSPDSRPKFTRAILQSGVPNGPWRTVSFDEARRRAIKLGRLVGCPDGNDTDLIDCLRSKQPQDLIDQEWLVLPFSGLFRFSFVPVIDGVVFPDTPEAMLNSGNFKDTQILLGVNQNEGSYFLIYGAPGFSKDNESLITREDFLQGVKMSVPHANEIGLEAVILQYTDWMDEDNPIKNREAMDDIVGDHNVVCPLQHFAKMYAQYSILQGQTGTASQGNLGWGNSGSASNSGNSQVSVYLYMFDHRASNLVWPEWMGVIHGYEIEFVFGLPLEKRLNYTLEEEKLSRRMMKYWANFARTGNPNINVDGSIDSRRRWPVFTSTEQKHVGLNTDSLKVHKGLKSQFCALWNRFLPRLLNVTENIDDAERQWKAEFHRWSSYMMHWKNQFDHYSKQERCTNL
T5 sequence (P78536 215-824): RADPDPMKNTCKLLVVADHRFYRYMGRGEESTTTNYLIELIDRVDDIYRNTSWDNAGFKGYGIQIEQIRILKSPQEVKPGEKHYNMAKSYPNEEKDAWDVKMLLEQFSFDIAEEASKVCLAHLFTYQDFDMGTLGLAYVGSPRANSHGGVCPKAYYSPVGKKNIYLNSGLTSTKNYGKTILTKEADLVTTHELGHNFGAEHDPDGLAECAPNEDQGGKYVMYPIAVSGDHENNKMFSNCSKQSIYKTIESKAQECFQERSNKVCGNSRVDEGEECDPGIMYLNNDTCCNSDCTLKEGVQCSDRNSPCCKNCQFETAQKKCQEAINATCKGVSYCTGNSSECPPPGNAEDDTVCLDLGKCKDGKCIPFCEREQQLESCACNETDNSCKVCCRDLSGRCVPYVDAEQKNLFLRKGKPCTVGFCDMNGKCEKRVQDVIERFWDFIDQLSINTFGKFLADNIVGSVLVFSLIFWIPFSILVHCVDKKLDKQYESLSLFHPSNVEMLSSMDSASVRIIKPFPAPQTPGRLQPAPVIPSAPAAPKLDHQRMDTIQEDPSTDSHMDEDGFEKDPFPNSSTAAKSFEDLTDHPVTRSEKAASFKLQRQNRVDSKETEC
T1 sequence (P56817 46-501): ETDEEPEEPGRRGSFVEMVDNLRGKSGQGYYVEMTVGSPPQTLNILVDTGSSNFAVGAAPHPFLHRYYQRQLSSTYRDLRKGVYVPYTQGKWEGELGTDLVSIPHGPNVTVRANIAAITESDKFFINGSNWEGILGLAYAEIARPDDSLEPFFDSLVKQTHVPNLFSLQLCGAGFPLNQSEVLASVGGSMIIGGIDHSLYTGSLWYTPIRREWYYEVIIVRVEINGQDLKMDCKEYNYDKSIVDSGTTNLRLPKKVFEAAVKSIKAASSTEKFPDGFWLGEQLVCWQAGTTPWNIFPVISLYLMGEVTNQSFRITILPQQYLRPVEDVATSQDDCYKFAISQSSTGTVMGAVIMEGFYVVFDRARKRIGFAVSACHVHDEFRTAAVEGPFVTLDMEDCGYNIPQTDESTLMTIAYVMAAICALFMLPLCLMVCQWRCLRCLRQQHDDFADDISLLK

COc1cc(O[C@@H]2O[C@H](CO[C@@H]3O[C@H](CO)[C@@H](O)[C@H](O)[C@H]3O)[C@@H](O)[C@H](O)[C@H]2O)c2c(O)c3c(=O)cc(C)oc3cc2c1 [Rubrofusarin-6-O-β-D-gentiobioside]
IC50 [1]: 15.9 ± 0.32 µM

O=C1CC(c2ccc(O)cc2)Oc2cc(O)cc(O)c21 (stereo not drawn) [Naringenin]
IC50 [2]: 30.3 ± 2.06 µM | inhibition at 10 µM [3]: 8.77 ± 0.74% | inhibition at 100 µM [3]: 6.88 ± 0.89% | Inhibition mode on AChE [4]: noncompetitive inhibition | Ki [4]: 45.4 µM | inhibition at 10 µM [5]: 9.74 ± 0.41% | inhibition at 100 µM [5]: 10.5 ± 1.17% | IC50 [6]: 42.7 ± 4.3 µM | Inhibition mode on BACE1 [7]: noncompetitive inhibition | Ki [7]: 47.1 µM | inhibition at 10 µM [8]: 5.15 ± 0.98% | inhibition at 100 µM [8]: 6.95 ± 1.52% | IC50 [9]: > 100 µM | Effect on scopolamine-induced amnesia [10]: significantly mitigated scopolamine-induced amnesia | Inhibitory activities (%) Trypsin ([11]; sample 10 μM): 7.80 ± 1.25% | Inhibitory activities (%) Trypsin ([11]; sample 100 μM): 5.84 ± 0.75% | BBB crossing [12]: cross the BBB | Presence in cerebral cortexes of rats ([13]; intravenous naringenin 20 mg/kg ref 28): identified

COc1ccc(C2CC(=O)c3c(O)cc(O)cc3O2)cc1O (stereo not drawn) [Hesperetin, 4′-methoxy-3′,5,7-trihydroxyflavanone]
IC50 [2]: 22.1 ± 1.81 µM | inhibition at 10 µM [3]: 4.91 ± 1.4% | inhibition at 100 µM [3]: 9.21 ± 0.33% | Inhibition mode on AChE [4]: noncompetitive inhibition | Ki [4]: 53.9 µM | inhibition at 10 µM [5]: 4.84 ± 0.46% | inhibition at 100 µM [5]: 9.95 ± 1.28% | IC50 [6]: 45.7 ± 2.69 µM | Inhibition mode on BACE1 [7]: noncompetitive inhibition | Ki [7]: 42.7 µM | inhibition at 10 µM [8]: 8.66 ± 0.7% | inhibition at 100 µM [8]: 11.3 ± 1.37% | IC50 [9]: > 100 µM | Effect on cadmium-induced damage in the brains of rats [14]: significantly attenuated cadmium-induced oxidative stress and mitochondrial dysfunction | Inhibitory activities (%) Trypsin ([11]; sample 10 μM): 5.31 ± 0.39% | Inhibitory activities (%) Trypsin ([11]; sample 100 μM): 4.72 ± 0.45% | BBB crossing [12]: cross the BBB | Presence in the rat brain ([13]; after oral administration of hesperidin ref 31): detected in the rat brain | Presence in the striatum of rat brains ([13]; intravenous 50 mg/kg ref 29): detected in the striatum of rat brains | Inhibitory activity against cholinesterases [15]: low inhibitory activity

COc1ccc([C@@H]2CC(=O)c3c(O)cc(O[C@@H]4O[C@H](CO[C@@H]5O[C@@H](C)[C@H](O)[C@@H](O)[C@H]5O)[C@@H](O)[C@H](O)[C@H]4O)cc3O2)cc1O [Hesperidin, hesperidin]
IC50 [2]: 17 ± 1.25 µM | inhibition at 10 µM [3]: 3.19 ± 0.28% | inhibition at 100 µM [3]: 4.11 ± 0.34% | Inhibition mode on AChE [4]: noncompetitive inhibition | Ki [4]: 21.4 µM | inhibition at 10 µM [5]: 6.91 ± 0.83% | inhibition at 100 µM [5]: 6 ± 1.33% | IC50 [6]: 22.8 ± 2.78 µM | Inhibition mode on BACE1 [7]: noncompetitive inhibition | Ki [7]: 39.4 µM | Effect of chronic administration in APPswe/PS1dE9 Tg mice [16]: attenuated oxidative damage, increased anti-oxidative defense, and alleviated cognitive impairment | inhibition at 10 µM [8]: 8.53 ± 1.05% | inhibition at 100 µM [8]: 9.19 ± 1.2% | Neuroprotective effect in APP/PS1 Tg mice [17]: recovered microglial activation, APP expression, Aβ deposition, and behavioral dysfunction | IC50 [9]: 48.1 ± 0.74 µM | Inhibitory activities (%) Trypsin ([11]; sample 10 μM): 2.27 ± 0.30% | Inhibitory activities (%) Trypsin ([11]; sample 100 μM): 1.41 ± 0.22% | Presence in brain homogenates ([13]; systemic administration of hesperidin to rats ref 30): presence of hesperidin was confirmed by brain homogenates | Inhibitory activity against cholinesterases [15]: low inhibitory activity | Inhibition mode on BChE ([18]; Dixon and Lineweaver–Burk plots): noncompetitive inhibition | Ki ([18]; Dixon plot): 93.6 µM
